Values of other authors in US9057089B2, “Methods for natural product optimization” (The University of Wyoming, priority 2008, dated 2015).

Key:
[1] = test system: fungi, protozoa, or eukaryotic cells
[2] = human clinical trials
peptidoglycan synthesis = settings: metabolic labeling
[3] = test system: transpeptidases (penicillin binding proteins, PBPs)
[4] = in vivo
RpoB-V1275F mutant = settings: rpoB Val→Phe substitution (position 1275)

## CCCC1OC(=O)C(C)CC(C)CCCCC(=O)CCCC(CC)/C=C/C=C(\COC)CCC(O)C(O)CC(O)CNC1=O (centres unmarked) [Antibiotic TA, myxovirescin]
Growing E. coli cells; sera
  effect of sera on activity: not inhibited by sera
Growing E. coli cells; within 30 minutes at 2 μg/ml
  growing E. coli cells killed: 99%
[1]
  activity on fungi, protozoa, or eukaryotic cells: not active
[2]
  therapeutic effect in periodontal diseases: effective therapeutic
[2]; only two treatments
  three indices (plaque, gingival, and bleeding): significantly improved
Peptidoglycan synthesis
  peptidoglycan synthesis: blocks peptidoglycan synthesis
[3]
  inhibition of final cross-linking step catalyzed by transpeptidases: does not inhibit
[4]
  safety: safe

## C/C=C/C/C=C(\C)C(O)CC/C(C)=C/C=C(\C)C(=O)c1c(O)cc([C@H](C)CC/C=C/NC(=O)OC)oc1=O (some centres unmarked) [Cor, corallopyronin]
RpoB-V1275F mutant
  increase of antibiotic MIC values relative to wild type cells: > 8 fold

## C/C(=C\Cc1ccccc1)CCC(=O)C[C@H]1C[C@H](O)C/C(C)=C/C/C=C/C/C(CC(=O)O)=C\C(=O)O1 [Rip, ripostatin]
RpoB-V1275F mutant
  increase of antibiotic MIC values relative to wild type cells: > 16 fold

## myxopyronin
RpoB-V1275F mutant
  increase of antibiotic MIC values relative to wild type cells: > 32 fold
